Experimental data published in the NIST ThermoML archive (doi:10.1016/j.fluid.2004.09.013).
Numbers after ± are expanded uncertainties.

Conditions: for mass density: Fluid (supercritical or subcritical phases), Vibrating tube method; for vapor or sublimation pressure: Liquid

C/C=C/C [(E)-2-butene]
Conditions	mass density [kg/m3]
273.24 K, 553 kPa	627.87 ± 1.3
273.24 K, 4992 kPa	633.27 ± 1.3
273.24 K, 9995 kPa	638.88 ± 1.3
273.24 K, 14991 kPa	644.04 ± 1.3
273.24 K, 19997 kPa	648.86 ± 1.4
273.24 K, 24996 kPa	653.38 ± 1.4
273.24 K, 29993 kPa	657.62 ± 1.4
273.24 K, 34997 kPa	661.64 ± 1.4
273.24 K, 39989 kPa	665.43 ± 1.5
278.25 K, 553 kPa	622.2 ± 1.3
278.25 K, 4990 kPa	627.88 ± 1.3
278.25 K, 10005 kPa	633.76 ± 1.3
278.25 K, 15007 kPa	639.16 ± 1.3
278.25 K, 20007 kPa	644.16 ± 1.4
278.25 K, 24990 kPa	648.82 ± 1.4
278.25 K, 30005 kPa	653.23 ± 1.4
278.25 K, 34987 kPa	657.36 ± 1.4
278.25 K, 40004 kPa	661.3 ± 1.5
283.26 K, 551 kPa	616.48 ± 1.2
283.26 K, 4990 kPa	622.46 ± 1.3
283.26 K, 9993 kPa	628.6 ± 1.3
283.26 K, 15009 kPa	634.25 ± 1.3
283.26 K, 20003 kPa	639.45 ± 1.3
283.26 K, 24994 kPa	644.29 ± 1.4
283.26 K, 29985 kPa	648.83 ± 1.4
283.26 K, 35008 kPa	653.12 ± 1.4
283.26 K, 40005 kPa	657.17 ± 1.5
288.27 K, 548 kPa	610.68 ± 1.2
288.27 K, 4995 kPa	616.99 ± 1.3
288.27 K, 9994 kPa	623.43 ± 1.3
288.27 K, 14992 kPa	629.3 ± 1.3
288.27 K, 19992 kPa	634.71 ± 1.3
288.27 K, 24999 kPa	639.75 ± 1.4
288.27 K, 29993 kPa	644.44 ± 1.4
288.27 K, 34985 kPa	648.85 ± 1.4
288.27 K, 40007 kPa	653.04 ± 1.5
293.28 K, 550 kPa	604.8 ± 1.2
293.28 K, 4985 kPa	611.45 ± 1.2
293.28 K, 9991 kPa	618.21 ± 1.3
293.28 K, 14993 kPa	624.34 ± 1.3
293.28 K, 19997 kPa	629.98 ± 1.3
293.28 K, 24993 kPa	635.19 ± 1.4
293.28 K, 29998 kPa	640.06 ± 1.4
293.28 K, 35013 kPa	644.64 ± 1.4
293.28 K, 39998 kPa	648.92 ± 1.4
298.29 K, 551 kPa	598.83 ± 1.2
298.29 K, 4989 kPa	605.85 ± 1.2
298.29 K, 14986 kPa	619.36 ± 1.3
298.29 K, 19984 kPa	625.21 ± 1.3
298.29 K, 25012 kPa	630.65 ± 1.4
298.29 K, 29999 kPa	635.67 ± 1.4
298.29 K, 34986 kPa	640.36 ± 1.4
298.29 K, 39987 kPa	644.79 ± 1.4
298.3 K, 9994 kPa	612.96 ± 1.3
303.3 K, 590 kPa	592.81 ± 1.2
303.3 K, 4982 kPa	600.18 ± 1.2
303.3 K, 9998 kPa	607.66 ± 1.3
303.3 K, 19987 kPa	620.43 ± 1.3
303.3 K, 25004 kPa	626.07 ± 1.4
303.3 K, 29998 kPa	631.26 ± 1.4
303.3 K, 35005 kPa	636.13 ± 1.4
303.31 K, 15001 kPa	614.35 ± 1.3
303.31 K, 39999 kPa	640.69 ± 1.4
308.31 K, 635 kPa	586.69 ± 1.2
308.31 K, 4989 kPa	594.43 ± 1.2
308.32 K, 10005 kPa	602.29 ± 1.2
308.32 K, 14996 kPa	609.28 ± 1.3
308.32 K, 19995 kPa	615.63 ± 1.3
308.32 K, 24994 kPa	621.44 ± 1.3
308.32 K, 29983 kPa	626.82 ± 1.4
308.32 K, 35009 kPa	631.86 ± 1.4
308.32 K, 39996 kPa	636.54 ± 1.4
313.2 K, 869 kPa	580.91 ± 1.2
313.21 K, 4996 kPa	588.66 ± 1.2
313.21 K, 10004 kPa	596.91 ± 1.2
313.21 K, 14989 kPa	604.2 ± 1.3
313.21 K, 20008 kPa	610.83 ± 1.3
313.21 K, 24999 kPa	616.85 ± 1.3
313.21 K, 29996 kPa	622.41 ± 1.4
313.21 K, 34992 kPa	627.58 ± 1.4
313.21 K, 39986 kPa	632.41 ± 1.4
318.21 K, 939 kPa	574.67 ± 1.2
318.21 K, 5000 kPa	582.76 ± 1.2
318.21 K, 9985 kPa	591.43 ± 1.2
318.21 K, 14990 kPa	599.1 ± 1.3
318.21 K, 20004 kPa	605.99 ± 1.3
318.21 K, 25005 kPa	612.25 ± 1.3
318.21 K, 29987 kPa	617.99 ± 1.4
318.21 K, 34986 kPa	623.33 ± 1.4
318.21 K, 39990 kPa	628.31 ± 1.4
323.22 K, 1000 kPa	568.23 ± 1.2
323.22 K, 4994 kPa	576.71 ± 1.2
323.22 K, 9997 kPa	585.9 ± 1.2
323.22 K, 14997 kPa	593.93 ± 1.2
323.22 K, 19997 kPa	601.1 ± 1.3
323.22 K, 24992 kPa	607.59 ± 1.3
323.22 K, 30007 kPa	613.57 ± 1.4
323.22 K, 34983 kPa	619.06 ± 1.4
323.22 K, 39993 kPa	624.2 ± 1.4
328.22 K, 1068 kPa	561.65 ± 1.1
328.22 K, 4987 kPa	570.54 ± 1.2
328.22 K, 9989 kPa	580.26 ± 1.2
328.22 K, 14994 kPa	588.69 ± 1.2
328.22 K, 19994 kPa	596.17 ± 1.3
328.22 K, 24990 kPa	602.92 ± 1.3
328.22 K, 30006 kPa	609.12 ± 1.4
328.22 K, 34984 kPa	614.78 ± 1.4

Conditions	vapor or sublimation pressure [kPa]
274.84 K	105.09 ± 0.48
278.8 K	122.11 ± 0.52
283.68 K	145.21 ± 0.59
287.85 K	167.86 ± 0.67
292.59 K	196.47 ± 0.76
296.57 K	221.89 ± 0.89
307.78 K	313.51 ± 1.2
313.09 K	365.29 ± 1.4
318.13 K	418.65 ± 1.6
327.87 K	543.04 ± 2
